Values quoted from earlier work in US20090220618A1, “PHARMACEUTICAL FORMULATIONS COMPRISING POLYANIONIC MATERIALS AND SOURCE OF HYDROGEN PEROXIDE” (priority 2008, published 2009).

Columns and labels:
[1] = at 25° C.
[2] = system: sensitive tissues of the eye

Row | Compound | pKa [1] | concentration causing apoptosis [2] | concentration causing growth arrest [2] | concentrations causing necrosis [2]
1 | CC(C)(CO)NCC(O)CS(=O)(=O)O (stereo not drawn) [AMP SO] | 9.0 | – | – | –
2 | O=S(=O)(O)CC(O)CN(CCO)CCO (stereo not drawn) [DIPSO] | 7.52 | – | – | –
3 | O=S(=O)(O)CCCCNC(CO)(CO)CO [TABS, N-tris(hydroxymethyl)methyl-4-aminobutanesulfonic acid] | 8.9 | – | – | –
4 | benzalkonium chloride [BAK] | – | 0.01% | 0.00001% | 0.05-0.1%
